What follows are compounds tested against STAT3 (Homo sapiens, UniProt P40763) (assay: STAT3 HiBiT degradation assay in transfected A549 cells). Conditions: A549, 24 h; read-out: STAT3 HiBiT A549 degradation 24 h: Average external-Abs DC50.
Assay type: cell-based
Design: expressed in transfected cells; host or cells: A549
Procedure, shortened: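 Degradation read as HiBiT-tagged STAT3 luminescence (Nano-Glo lytic reagent, 10 min, room temperature) following 24 h compound treatment of transfected A549 cells at 3-fold, 10 points. Percent remaining signal computed against controls and fitted with a four-parameter logistic; DC50 reported as letter bins (A <0.01 to D >1.0 µM).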

STAT3, sequence (P40763 whole entry): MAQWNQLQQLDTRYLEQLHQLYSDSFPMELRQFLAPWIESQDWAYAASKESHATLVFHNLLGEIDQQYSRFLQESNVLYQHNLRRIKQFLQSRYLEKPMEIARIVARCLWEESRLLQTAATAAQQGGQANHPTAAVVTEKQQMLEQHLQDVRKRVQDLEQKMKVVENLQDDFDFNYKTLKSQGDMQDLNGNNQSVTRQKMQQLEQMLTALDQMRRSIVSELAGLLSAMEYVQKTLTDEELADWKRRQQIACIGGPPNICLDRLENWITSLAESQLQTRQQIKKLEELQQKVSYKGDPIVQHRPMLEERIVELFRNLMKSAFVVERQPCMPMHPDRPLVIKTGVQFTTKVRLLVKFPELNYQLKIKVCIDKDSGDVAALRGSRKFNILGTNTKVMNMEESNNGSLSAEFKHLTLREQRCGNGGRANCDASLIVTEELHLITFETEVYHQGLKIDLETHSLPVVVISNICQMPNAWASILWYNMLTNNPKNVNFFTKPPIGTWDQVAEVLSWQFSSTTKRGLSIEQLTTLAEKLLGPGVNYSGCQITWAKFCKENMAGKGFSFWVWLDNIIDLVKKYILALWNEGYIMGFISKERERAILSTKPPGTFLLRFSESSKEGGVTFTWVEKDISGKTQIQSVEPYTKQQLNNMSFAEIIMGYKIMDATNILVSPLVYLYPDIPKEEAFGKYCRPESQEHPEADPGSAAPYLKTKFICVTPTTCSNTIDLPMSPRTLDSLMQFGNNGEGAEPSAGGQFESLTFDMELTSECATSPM

`Cc1ncsc1-c1ccc(CNC(=O)[C@@H]2C[C@@H](O)CN2C(=O)[C@@H](NC(=O)C2(CCCc3ccc(CO[C@H](C)[C@H](CCC(N)=O)NC(=O)[C@@H]4Cc5cccc6c5N4C(=O)[C@@H](NC(=O)c4cc5cc(C(=O)P(=O)(O)O)ccc5[nH]4)CC6)cc3)CC2)C(C)(C)C)cc1` [Compound I-223, diammonium 2-[[(2S,11S)-2-[[(3S,4R)-1-carbamoyl-4-([4-[3-(1-[[(2S)-1-[(2S,4R)-4-hydroxy-2-([[4-(4-methyl-1,3-thiazol-5-yl)phenyl]methyl]carbamoyl)pyrrolidin-1-yl]-3,3-dimethyl-1-oxobutan-2-yl]carbamoyl]cyclopropyl)propyl]phenyl]methoxy)pentan-3-yl]carbamoyl]-12-oxo-1-azatricyclo[6.4.1.0^[4,13]]trideca-4(13),5,7-trien-11-yl]carbamoyl]-1H-indole-5-carbonylphosphonate] and `Cc1ncsc1-c1ccc([C@H](C)NC(=O)[C@@H]2C[C@@H](O)CN2C(=O)[C@@H](NC(=O)CCCCc2ccc(CO[C@H](C)[C@H](CCC(N)=O)NC(=O)[C@@H]3Cc4cccc5c4N3C(=O)[C@@H](NC(=O)c3cc4cc(C(=O)P(=O)(O)O)ccc4[nH]3)CC5)cc2)C(C)(C)C)cc1` [Compound I-227] fall in the same range of DC50: 100 to 1000 nM for the first, 100 to 1000 nM for the second.

First: Cc1ncsc1-c1ccc(CNC(=O)[C@@H]2C[C@@H](O)CN2C(=O)[C@@H](NC(=O)CCCCCc2cccc(CC[C@H](CCC(N)=O)NC(=O)[C@@H]3Cc4cccc5c4N3C(=O)[C@@H](NC(=O)c3cc4cc(C(=O)P(=O)(O)O)ccc4[nH]3)CC5)c2)C(C)(C)C)cc1 [Compound I-224, diammonium 2-[[(2S,11S)-2-[[(3R)-1-carbamoyl-5-[3-[5-[[(2S)-1-[(2S,4R)-4-hydroxy-2-([[4-(4-methyl-1,3-thiazo1-5-yl)phenyl]methyl]carbamoyl)pyrrolidin-1-yl]-3,3-dimethyl-1-oxobutan-2-yl]carbamoyl]pentyl)phenyl]pentan-3-yl]carbamoyl]-12-oxo-1-azatricyclo[6.4.1.0^[4,13]]trideca-4(13),5,7-trien-11-yl]carbamoyl]-1H-indole-5-carbonylpho sphonate]
Second: Cc1ncsc1-c1ccc([C@H](C)NC(=O)[C@@H]2C[C@@H](O)CN2C(=O)[C@@H](NC(=O)CCCCc2ccc(CO[C@H](C)[C@H](CCC(N)=O)NC(=O)[C@@H]3Cc4cccc5c4N3C(=O)[C@@H](NC(=O)c3cc4cc(C(=O)P(=O)(O)O)ccc4[nH]3)CC5)c(F)c2)C(C)(C)C)cc1 [Compound I-225, diammonium 2-[[(2S,11S)-2-[[(3S,4R)-1-carbamoyl-4-[[2-fluoro-4-(4-[[(2S)-1-[(2S,4R)-4-hydroxy-2-[[(1S)-1-[4-(4-methyl-1,3-thiazol-5-yl)phenyl]ethyl]carbamoyl]pyrrolidin-1-yl]-3,3-dimethyl-1-oxobutan-2-yl]carbamoyl]butyl)phenyl]methoxy]pentan-3-yl]carbamoyl]-12-oxo-1-azatricyclo[6.4.1.0^[4,13]]trideca-4(13),5,7-trien-11-yl]carbamoyl]-1H-indole-5-carbonylphosphonate]
The DC50 of the first is higher: greater than 1000 nM for the first, 100 to 1000 nM for the second.

First: Cc1cc(CCCCC(=O)N[C@H](C(=O)N2C[C@H](O)C[C@H]2C(=O)N[C@@H](C)c2ccc(-c3scnc3C)cc2)C(C)(C)C)ccc1CO[C@H](C)[C@H](CCC(N)=O)NC(=O)[C@@H]1Cc2cccc3c2N1C(=O)[C@@H](NC(=O)c1cc2cc(C(=O)P(=O)(O)O)ccc2[nH]1)CC3 [Compound I-226, 2-[[(2S,11S)-2-[[(3S,4R)-1-carbamoyl-4-[[4-(4-[[(2S)-1-[(2S,4R)-4-hydroxy-2-[[(1S)-1-[4-(4-methyl-1,3-thiazol-5-yl)phenyl]ethyl]carbamoyl]pyrrolidin-1-yl]-3,3-dimethyl-1-oxobutan-2-yl]carbamoyl]butyl)-2-methylphenyl]methoxy]pentan-3-yl]carbamoyl]-12-oxo-1-azatricyclo[6.4.1.0^[4,13]]trideca-4(13),5,7-trien-11-yl]carbamoyl]-1H-indole-5-carbonylphosphonic acid]
Second: Cc1cc(CCCC(=O)N[C@H](C(=O)N2C[C@H](O)C[C@H]2C(=O)N[C@@H](C)c2ccc(-c3scnc3C)cc2)C(C)(C)C)c(F)c(OC[C@H](CCC(N)=O)NC(=O)[C@@H]2Cc3cccc4c3N2C(=O)[C@@H](NC(=O)c2cc3cc(C(=O)P(=O)(O)O)ccc3[nH]2)CC4)c1 [Compound I-235, diammonium 2-[[(2S,11S)-2-[[(2S)-4-carbamoyl-1-[2-fluoro-3-(3-[[(2S)-1-[(2S,4R)-4-hydroxy-2-[[(1S)-1-[4-(4-methyl-1,3-thiazol-5-yl)phenyl]ethyl]carbamoyl]pyrrolidin-1-yl]-3,3-dimethyl-1-oxobutan-2-yl]carbamoyl]propyl)-5-methyl-phenoxy]butan-2-yl]carbamoyl]-12-oxo-1-azatricyclo[6.4.1.0^[4,13]]trideca-4(13),5,7-trien-11-yl]carbamoyl]-1H-indole-5-carbonylphosphonate]
The DC50 of the first is lower: 10 to 100 nM for the first, greater than 1000 nM for the second.

Compared with `Cn1c(=O)n(C2CCC(=O)NC2=O)c2ccc(C3CC(CCCC(=O)N4CC[C@H]5CC[C@@H](C(=O)N[C@@H](CCC(N)=O)C(=O)NC(c6ccccc6)c6ccccc6)N5C(=O)[C@@H](NC(=O)c5cc6cc(C(=O)P(=O)(O)O)ccc6[nH]5)C4)C3)cc21` (stereo partly drawn) [Compound I-228, 2-[[(5S,8S,10aR)-8-[[(1S)-3-carbamoyl-1-(diphenylmethylcarbamoyl)propyl]carbamoyl]-3-(4-[3-[1-(2,6-dioxopiperidin-3-yl)-3-methyl-2-oxo-1,3-benzodiazol-5-yl]cyclobutyl]butanoyl)-6-oxo-octahydropyrrolo[1,2-a][1,5]diazocin-5-yl]carbamoyl]-1H-indole-5-carbonylphosphonic acid], `Cn1c(=O)n(C2CCC(=O)NC2=O)c2ccc(CC3CCC(CC(=O)N4CC[C@H]5CC[C@@H](C(=O)N[C@H](CCC(N)=O)C(=O)NCc6ccc(S(C)(=O)=O)cc6)N5C(=O)[C@@H](NC(=O)c5cc6cc(C(=O)P(=O)(O)O)ccc6[nH]5)C4)CC3)cc21` (stereo partly drawn) [Compound I-230, 2-[[(5S,8S,10aR)-8-[[(1R)-3-carbamoyl-1-[[(4-methanesulfonylphenyl)methyl]carbamoyl]propyl]carbamoyl]-6-oxo-3-[2-[(1S,4S)-4-[[1-(2,6-dioxopiperidin-3-yl)-3-methyl-2-oxo-1,3-benzodiazol-5-yl]methyl]cyclohexyl]acetyl]-octahydropyrrolo[1,2-a][1,5]diazocin-5-yl]carbamoyl]-1H-indole-5-carbonylphosphonic acid] is higher in DC50: 100 to 1000 nM for the first, greater than 1000 nM for the second.

`Cn1c(=O)n(C2CCC(=O)NC2=O)c2ccc(CCCCCCc3cc4c5c(c3)C[C@@H](C(=O)N[C@@H](CCC(N)=O)C(=O)NC(c3ccccc3)c3ccccc3)N5C(=O)[C@@H](NC(=O)c3cc5cc(C(=O)P(=O)(O)O)ccc5[nH]3)CC4)cc21` (stereo partly drawn) [Compound I-229, 2-[[(2S,11S)-2-[[(1S)-3-carbamoyl-1-(diphenylmethylcarbamoyl)propyl]carbamoyl]-6-[6-[1-(2,6-dioxopiperidin-3-yl)-3-methyl-2-oxo-1,3-benzodiazol-5-yl]hexyl]-12-oxo-1-azatricyclo[6.4.1.0 [4,13]]-trideca-4(13),5,7-trien-11-yl]carbamoyl]-1H-indole-5-carbonylphosphonic acid] and `CC(C)c1ccc(CNC(=O)[C@H](CCC(N)=O)NC(=O)[C@@H]2Cc3cc(CCCCCCc4ccc5c(c4)n(C)c(=O)n5C4CCC(=O)NC4=O)cc4c3N2C(=O)[C@@H](NC(=O)c2cc3cc(C(=O)P(=O)(O)O)ccc3[nH]2)CC4)cc1` (stereo partly drawn) [Compound I-232, 2-[[(2S,11S)-2-[[(1S)-3-carbamoyl-1-[[(4-isopropylphenyl)methyl]carbamoyl]propyl]carbamoyl]-6-[6-[1-(2,6-dioxopiperidin-3-yl)-3-methyl-2-oxo-1,3-benzodiazol-5-yl]hexyl]-12-oxo-1-azatricyclo[6.4.1.0^[4,13]]trideca-4(13),5,7-trien-11-yl]carbamoyl]-1H-indole-5-carbonylphosphonic acid] fall in the same range of DC50: 10 to 100 nM for the first, 10 to 100 nM for the second.

In the case of `CC(=O)N1CC[C@H]2CC[C@@H](C(=O)N[C@@H](CCC(N)=O)COc3cccc(CCCC(=O)N[C@H](C(=O)N4C[C@H](O)C[C@H]4C(=O)N[C@@H](C)c4ccc(-c5scnc5C)cc4)C(C)(C)C)c3F)N2C(=O)[C@@H](NC(=O)c2cc3cc(C(=O)P(=O)(O)O)ccc3[nH]2)C1` [Compound I-231, diammonium 2-[[(5S,8S,10aR)-3-acetyl-8-[[(2S)-4-carbamoyl-1-[2-fluoro-3-(3[[(2S)-1-[(2S,4R)-4-hydroxy-2-[[(1S)-1-[4-(4-methyl-1,3-thiazo1-5-yl)phenyl]ethyl]carbamoyl]pyrrolidin-1-yl]-3,3-dimethyl-1-oxobutan-2-yl]carbamoyl]propyl)phenoxy]butan-2-yl]carbamoyl]-6-oxo-octahydropyrrolo[1,2-a][1,5]diazocin-5-yl]carbamoyl]-1H-indole-5-carbonylphosphonate], the DC50 is reported as 10 to 100 nM.

Same assay, conditions: read-out: STAT3 HiBiT A549 degradation 24 h: Average external-Abs DC50; A549, 24 h

`Cn1c(=O)n([C@@H]2CCC(=O)NC2=O)c2ccc(C[C@H]3CC[C@@H](CC(=O)N4CC[C@H]5CC[C@@H](C(=O)N[C@@H](CCC(N)=O)C(=O)NC(c6ccccc6)c6ccccc6)N5C(=O)[C@@H](NC(=O)c5cc6cc(C(=O)P(=O)(O)O)ccc6[nH]5)C4)CC3)cc21` [Compound I-234, (2-(((5S,8S,10aR)-8-(((S)-5-amino-1-(benzhydrylamino)-1,5-dioxopentan-2-yl)carbamoyl)-3-(2-((1S,4R)-4-((1-((R)-2,6-dioxopiperidin-3-yl)-3-methyl-2-oxo-2,3-dihydro-1H-benzo[d]imidazol-5-yl)methyl)cyclohexyl)acetyl)-6-oxodecahydropyrrolo[1,2-a][1,5]diazocin-5-yl)carbamoyl)-1H-indole-5-carbonyl)phosphonic acid] was tested, and the DC50 was 10 to 100 nM.
